Test results as given in US20070021355A1, “Antidepressants or foods and beverage for antidepression” (priority 2003, published 2007).

Tests used:
Type in all cases: in vivo
[1] = tested on: reserpine-administered mice; assay: Action on reserpine-induced temperature drop (body temperature); settings: for Body temperature: male ddY mice, reserpine 2 mg/kg s.c., 100 mg/kg i.p. once per day for two days, mean ± standard error
Protocol: (§1) Male ddY mice (4 weeks old) were subcutaneously administered reserpine (2 mg/kg) (Apoplon injection 1 mg, product of Daiichi Pharmaceutical Co., Ltd.). These mice were divided into two groups: one to which Compound 1 (100 mg/kg) was intraperitoneally administered once per day for two days (reserpine+Compound 1-administered group) and the other to which only a solvent was administered (reserpine+solvent-administered group). Reserpine and Compound 1 were administered after being dissolved in a physiological saline. The body temperature of the mice was measured 0.5, 1, 3 and 6 hours after the last administration. Separately, a solvent was administered to another group of mice without reserpine administration.

[2] = tested on: reserpine-administered mice; assay: Action on reserpine-induced blepharoptosis; settings: for Blepharoptosis score: score 1 completely opened to 5 completely closed, reserpine 2 mg/kg s.c., 100 mg/kg i.p. once per day for two days, mean ± standard error
Protocol: as §1, with “The level” for “The body temperature”, “of blepharoptosis” for “of the mice”, “was scored” for “was measured”, “last administration (score 1: completely opened, score 2: ¼ closed, score 3: ½ closed, score 4: ¾ closed, and score 5: completely closed).” for “last administration.”

[3] = tested on: 5-HT and 5-HIAA in the hypothalamus of mice; assay: Action on the amount of amine in the brain (5-HT and 5-HIAA in the hypothalamus); settings: 100 mg/kg i.p.
Protocol: Male ddY mice (4 weeks old) were intraperitoneally administered Compound 1 (100 mg/kg) (Compound 1-administered group) and their brains were excised 30 and 60 minutes after the administration to measure the amounts of serotonin (5-HT) and its metabolite 5-hydroxyindole-3-acetic acid (5-HIAA) in the hypothalamus. Compound 1 was administered after being dissolved in a physiological saline. Separately, another group of mice was administered only a solvent (solvent-administered group) and the amounts of 5-HT and 5-HIAA were measured in the same manner.

[4] = tested on: reserpine-administered mice; assay: Action on reserpine-induced drop in the quantity of spontaneous motion
Protocol: Male ddY mice (4 weeks old) were subcutaneously administered reserpine (2 mg/kg) (Apoplon injection 1 mg, product of Daiichi Pharmaceutical Co., Ltd.). These mice were divided into two groups: one to which Compound 1 (100 mg/kg) was intraperitoneally administered once per day for four days (reserpine+Compound 1-administered group) and the other to which only a solvent was administered (reserpine+solvent-administered group). Reserpine and Compound 1 were administered after being dissolved in a physiological saline. After the last administration, the mice were immediately put into breeding cages equipped with an infrared beam sensor (NS-AS01, Neuroscience, Inc.). After the last administration, the quantity of spontaneous motion in each 30-minute period was measured for 360 minutes with an infrared beam sensor device for measuring the quantity of spontaneous motion (AB system, Neuroscience, Inc.) and the measured values were summed up on a specific purpose computer via an interface (B060CT8H06, Neuroscience, Inc). Separately, another group of mice which was administered no reserpine was tested.

[5] = tested on: mice fed with a vitamin B deficient food; assay: Action on depressive behavior induced by vitamin B deficient food (swimming patterns)
Protocol: Male ddY mice (3 weeks old) were fed with a feed deficient in vitamin B1, vitamin B12 and folic acid for 8 days and then divided into two groups: one to which Compound 1 (100 mg/kg) was intraperitoneally administered once per day for 11 days (vitamin deficient food+Compound 1-administered group) and the other to which only a solvent was administered (vitamin deficient food+solvent-administered group). Compound 1 was administered after being dissolved in a physiological saline. Two hours after the last administration, the mice were put in a plastic cylindrical tub (diameter: 18 cm, height: 40 cm, water depth: 15 cm, water temperature: ca. 23° C.), followed by measurement of the time of their struggle, swimming and immobility in 10 minutes. Separately, another group of mice fed with a normal food was tested.

[6] = 30 minute after last administration
[7] = 60 minute after last administration
[8] = 180 minute after last administration
[9] = 360 minute after last administration
[10] = male ddY mice, brains excised 30 and 60 minutes after administration, mean ± standard error
[11] = vitamin B deficient food, 100 mg/kg i.p. once per day for 11 days, two hours after last administration, time in 10 minutes, mean ± standard error

## NC(Cc1c([C@@H]2O[C@@H](CO)[C@H](O)[C@@H](O)[C@H]2O)[nH]c2ccccc12)C(=O)O (stereo partly drawn) [Compound 1, 2-amino-3-[2-(α-L-mannopyranosyl]indol-3-yl]propionic acid]
[1]; 100 mg/kg i.p.
  Effect on body temperature of reserpine-administered mice (in words): significantly raised the body temperature
[1]; [6]
  Body temperature: ***36.1 ± 0.2 °C
[1]; [7]
  Body temperature: ** 35.4 ± 0.1 °C
[1]; [8]
  Body temperature: ** 35.2 ± 0.3 °C
[1]; [9]
  Body temperature: ** 34.9 ± 0.4 °C
[2]; 100 mg/kg i.p.
  Effect on reserpine-induced blepharoptosis (in words): showed the action to improve the condition
[2]; [6]
  Blepharoptosis score: ***3.0 ± 0.4
[2]; [7]
  Blepharoptosis score: ** 3.1 ± 0.3
[2]; [8]
  Blepharoptosis score: ** 3.3 ± 0.3
[2]; [9]
  Blepharoptosis score: ** 3.3 ± 0.2
[3]
  Effect on contents of 5-HT and 5-HIAA in the hypothalamus (in words): increased the contents of 5-HT and 5-HIAA
[3]; [10]
  Content of 5-HIAA in the hypothalamus: 374.1 ± 26.7 ng/g wet weight
  Content of 5-HT in the hypothalamus: 815.0 ± 39.1 ng/g wet weight
[4]; 100 mg/kg i.p.
  Effect on reserpine-induced drop in quantity of spontaneous motion (in words): showed the action to increase the quantity of spontaneous motion
[4]; reserpine 2 mg/kg s.c., 100 mg/kg i.p. once per day for four days, infrared beam sensor, mean ± standard error
  Quantity of spontaneous motion in 360 minutes: 2464.2 ± 594.6 count
[5]; 100 mg/kg i.p.
  Effect on struggle, swimming and immobility time of mice on vitamin B deficient food (in words): improved these actions
[5]; [11]
  Swimming pattern: Immobility: ***35.6 ± 15.4 second
  Swimming pattern: Struggle: ***2.4 ± 2.4 second
  Swimming pattern: Swimming: ***562.0 ± 14.2 second
